Measured values published in the supplement of paper PMC10307832.

Legend:
Test in all cases: relative viability (nuclei count vs DMSO), 5 days (fraction); higher = more cells survive
[1] = compound: C1/C(=C\C2=CC=CS2)/C(=O)/C(=C/C3=CC=CS3)/C1 + C[C@@H](Oc1cc(-c2cnn(C3CCNCC3)c2)cnc1N)c1c(Cl)ccc(F)c1Cl [Crizotinib] (partner 1 µM)
Procedure, shortened: (§1)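 Medians of duplicate plates are given as relative viability. That measure is the nuclei count in treated wells divided by the count in vehicle wells. Counts were taken on 4× images of lung cancer cell lines in 1536-well plates, 5 days after pin-tool dosing the day after seeding with one drug alone or a fixed anchor-drug dose plus five library-drug doses (not always all listed) in √10 steps.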

[2] = compound: C1/C(=C\C2=CC=CS2)/C(=O)/C(=C/C3=CC=CS3)/C1 + C[C@]1(O)C[C@@H](c2nc(-c3ccc4ccc(-c5ccccc5)nc4c3)c3c(N)nccn32)C1 [Linsitinib] (partner 1 µM)
Procedure, shortened: as §1

[3] = compound: C1/C(=C\C2=CC=CS2)/C(=O)/C(=C/C3=CC=CS3)/C1 + Nc1ncn([C@H]2C[C@H](O)[C@@H](CO)O2)c(=O)n1 [Decitabine] (partner 2 µM)
Procedure, shortened: as §1

[4] = compound: C[C@]12O[C@H](C[C@]1(O)CO)n1c3ccccc3c3c4c(c5c6ccccc6n2c5c31)CNC4=O [Lestaurtinib] + CC(C)C[C@H](NC(=O)[C@H](Cc1ccccc1)NC(=O)c1cnccn1)B(O)O [Bortezomib] (partner 0.002 µM)
Procedure, shortened: as §1

Cell Line | relative viability ([1]; first compound 0.2 µM) | relative viability ([1]; first compound 0.6325 µM) | relative viability ([1]; first compound 2 µM) | relative viability ([1]; first compound 6.325 µM) | relative viability ([1]; first compound 20 µM) | relative viability ([2]; first compound 0.2 µM) | relative viability ([2]; first compound 0.6325 µM) | relative viability ([2]; first compound 2 µM) | relative viability ([2]; first compound 6.325 µM) | relative viability ([2]; first compound 20 µM) | relative viability ([3]; first compound 0.2 µM) | relative viability ([3]; first compound 0.6325 µM) | relative viability ([3]; first compound 2 µM) | relative viability ([3]; first compound 6.325 µM) | relative viability ([3]; first compound 20 µM) | relative viability ([4]; first compound 0.005 µM) | relative viability ([4]; first compound 0.01581 µM) | relative viability ([4]; first compound 0.05 µM) | relative viability ([4]; first compound 0.1581 µM) | relative viability ([4]; first compound 0.5 µM)
HCC-44 | 0.802 | 0.862 | 0.712 | 0.734 | 0.798 | 0.633 | 0.748 | 0.693 | 0.592 | 0.655 | 0.946 | 1 | 0.881 | 0.844 | 0.973 | 0.925 | 0.997 | 0.873 | 1.06 | 0.683
HCC-78 | 0.334 | 0.35 | 0.354 | 0.313 | 0.327 | 0.649 | 0.554 | 0.57 | 0.535 | 0.496 | 0.653 | 0.763 | 0.755 | 0.714 | 0.686 | 0.47 | 0.488 | 0.425 | 0.283 | 0.29
HCC-366 | 0.421 | 0.651 | 0.525 | 0.451 | 0.513 | 0.701 | 0.574 | 0.647 | 0.467 | 0.6 | 0.296 | 0.329 | 0.341 | 0.369 | 0.336 | 1.13 | 1.11 | 0.565 | 1.05 | 0.43
HCC-827 | 0.961 | 0.898 | 0.949 | 0.635 | 0.978 | 1.05 | 0.953 | 0.923 | 0.929 | 0.903 | 0.316 | 0.38 | 0.377 | 0.28 | 0.308 | 0.923 | 1.08 | 0.989 | 1.11 | 0.647
HOP-62 | 0.985 | 1.07 | 1 | 0.712 | 0.804 | 1.09 | 0.879 | 0.853 | 0.982 | 0.815 | 0.211 | 0.202 | 0.199 | 0.221 | 0.202 | 0.863 | 0.707 | 0.913 | 1.42 | 0.696
IA-LM | 1.19 | 0.721 | 0.651 | 0.747 | 1 | 0.623 | 0.895 | 0.623 | 0.616 | 0.523 |  |  |  |  |  | 1.08 | 1.18 | 1.08 | 0.943 | 0.339
LC-2-ad | 0.488 | 0.503 | 0.454 | 0.368 | 0.484 | 0.832 | 0.838 | 0.875 | 0.69 | 0.847 | 0.861 | 0.823 | 0.797 | 0.666 | 0.748 | 0.966 | 1.2 | 0.882 | 0.407 | 0.329
LK-2 | 0.249 | 0.225 | 0.218 | 0.215 | 0.242 | 0.641 | 0.857 | 0.633 | 0.583 | 0.59 | 0.341 | 0.31 | 0.358 | 0.33 | 0.347 |  |  |  |  | 
NCI-H358 | 0.623 | 0.661 | 0.599 | 0.438 | 0.693 | 0.887 | 0.757 | 0.821 | 0.644 | 0.809 | 0.217 | 0.207 | 0.212 | 0.203 | 0.192 |  |  |  |  | 
